The values below are quoted from earlier work in US11857553B2, “Chromium containing compositions for improving health and fitness” (NUTRITION 21, LLC, priority 2016, dated 2024).

For data set [1] the following is noted: rats, several thousand times the upper limit of the ESADDI for chromium for humans.
Data set [2] has as its system chromium absorption. Conditions: orally administered CrCl3.

For the compound `[Cl][Cr]([Cl])[Cl]` [chromium chloride], in data set [1], the toxicity entry is recorded as “without toxic effects”.

With `COc1ccc2c(c1)c(CC(=O)O)c(C)n2C(=O)c1ccc(Cl)cc1` [indomethacin], the “effect on chromium absorption” value in data set [2] was “facilitate chromium absorption”.

Turning to `CC(=O)Oc1ccccc1C(=O)O` [aspirin], the “effect on chromium absorption” value in data set [2] is “facilitate chromium absorption”.

Consider chromium picolinate, for which the toxicity entry in data set [1] is “without toxic effects”.
